Measurements reported in PMC11167521, “Inhibition of neuraminidase-1 sialidase activity by interfering peptides impairs insulin receptor activity in vitro and glucose homeostasis in vivo” (The Journal of Biological Chemistry, 2024).
No end group written: not given here.

Key:
[1] = target: T1, membrane NEU-1 in HepG2 cells (Homo sapiens, UniProt Q99519); assay: Colocalization of fluorescent peptide with NEU-1 by confocal microscopy; assay type: cell-based; conditions: fixed HepG2 cells, 0.1 μM in LDS micelles, 1 h, n = 3
T1 construct: HepG2 endogenously expresses IR and NEU-1; endogenous in cells; host or cells: HepG2 (ATCC HB-8065)
Protocol: IntPeps coupled with FITC and solubilized in LDS micelles have been incubated at 0.1 μM for 1 h with fixed HepG2 cells.
HepG2 cells were seeded onto coverslips in 24-well plates at 50,000 cells/well. After 24 h, cells were fixed with paraformaldehyde 1% (Euromedex) for 5 min followed by a second incubation with paraformaldehyde 2% for 10 min at room temperature (RT). Cells were washed twice for 5 min with PBS and permeabilized with Triton 0.2% during 5 min at RT. A total of 3% bovine serum albumin (BSA) was disposed in each well for 1 h at RT after three washes with PBS for 5 min. Cells were then incubated with NEU-1 mouse monoclonal antibody (1/200 in PBS with 3% BSA) (Santa Cruz Biotechnology) for 2 h at RT. Then, this solution was removed, and the cells were incubated with anti-mouse secondary antibody coupled with Alexa Fluor 568 (1/1000 in PBS with 3% BSA) (Invitrogen) for 2 h at RT in the dark. After washes, cells were incubated with IntPeps coupled with FITC (0.1 μM) or with FITC alone (0.1 μM) at RT in the dark. Coverslips were then mounted in a medium containing 4′,6-diamidino-2-phenylindole (Prolong gold, antifade, Invitrogen). Slides were finally observed using confocal microscopy (Zeiss LSM 710) and featured slices were analyzed with Image J software (https://imagej.net/ij/download.html).

[2] = target: T2, membrane NEU-1 (Homo sapiens, UniProt Q99519); assay: Membrane NEU-1 sialidase activity, COS-7^IR/NEU-1 crude membranes (Muf-NANA); assay type: biochemical; set-up: host or cells: COS-7 (ATCC CRL-1651) or COS-7^IR, transient transfection, 72 h; conditions: COS-7^IR/NEU-1 crude membrane, 0.1 μM, 15 min, compared to mutIntPep-RKR, n = 4-5, mean ± SEM
Source text: (§1) Plasmid encoding human IR was a gift from Dr Tarik Issad (Institut Cochin, Paris, France) and plasmid encoding human PPCA protein was provided by Pr. Alessandra d’Azzo (St Jude Children's Research Hospital, Memphis, USA). These two plasmids have been previously described ([50], [51]). Plasmid encoding human NEU-1 was purchased from ImaGenes GmbH. For cell transfections, JetPEI DNA transfection reagent was purchased from Polyplus transfection. […] HepG2 cells were harvested in 1 g/L glucose Dulbecco’s modified Eagle’s medium supplemented with 10% heat inactivated fetal bovine serum, 100 units/ml penicillin, 0,1 mg/ml streptomycin at 37 °C in a humidified atmosphere at 5% CO2. COS-7 cells were maintained in culture in 4.5 g/L glucose Dulbecco’s modified Eagle’s medium supplemented with 10% heat-inactivated fetal bovine serum, 100 units/ml penicillin, 0.1 mg/ml streptomycin at 37 °C in a humidified atmosphere at 5% CO2. COS-7 cells have been stably transfected with plasmid encoding human IR. Geneticin selection (400 μg/ml) has been made after transfection to obtain a stable cell line overexpressing IR named COS-7^IR. Geneticin (80 μg/ml) were added in the completed medium to maintain this cell line. […]

[3] = target: T2, membrane NEU-1; assay: Membrane NEU-1 sialidase activity, COS-7^NEU-1 crude membranes (Muf-NANA); assay type: biochemical; set-up: host or cells: COS-7 (ATCC CRL-1651) or COS-7^IR, transient transfection, 72 h; conditions: COS-7^NEU-1 crude membrane, 0.1 μM, 15 min, compared to mutIntPep-RKR, n = 4-5, mean ± SEM
Source text: as §1

[4] = tested on: HepG2 cells; assay: MTT cell viability assay, HepG2 cells; assay type: cell-based, human; conditions: peptide 0.1 μM in LDS micelles, 3 h and 24 h, compared to control without treatment, n = 3-4
Protocol: (§2) The concentration of 0.1 μM and two incubation times, 3 h (Fig. S1, A and C) and 24 h (Fig. S1, B and D) have been tested. […] The choice of this concentration was based on the previous study by Albrecht et al. ([31]).
(§3) HepG2 cell line and COS-7^IR cells were, respectively, harvested in 96-well plates at a cell density of 80,000 cells/well and 10,000 cells/well. After 24 h, cells were incubated with IntPep-RKR or mutIntPep-RKR at 0.1 μM or only with LDS micelles during 3 h or 24 h. Then, the medium has been removed and cells were incubated in the dark during 4 h at 37 °C with a 3-(4-5-dimethylthiazol-2-yl) -2,5-diphenyltetrazolium bromide solution (MTT, Sigma, 5 mg/ml) diluted in PBS (one-sixth v/v). The medium was removed, and 100 μl of dimethyl sulfoxide were added in each well. Cell viability was measured at 570 nm with Infinite F200 Pro (TECAN) hardware using Magellan software (https://lifesciences.tecan.com/software-magellan?p=tab--2).
(§4) HepG2 cells (A,B) and COS-7 cells
(§5) overexpressing IR (C,D) were incubated with mutIntPep-RKR, IntPep-RKR (0.1 µm) or LDS
(§6) micelles for 3h (A,C) or for 24h (B,D).
(§7) ZS equipment (Malvern Panalytical, UK). Water was used as a reference dispersing medium.
(§8) Micelles sizes were expressed in volume (as the diameter of a theorical sphere in nanometer),

[5] = tested on: COS-7 cells overexpressing IR (COS-7^IR); assay: MTT cell viability assay, COS-7 cells overexpressing IR; assay type: cell-based, African green monkey; conditions: peptide 0.1 μM in LDS micelles, 3 h and 24 h, compared to control without treatment, n = 3-4
Protocol: as §2, §3, §4, §5, §6, §7, §8

[6] = target: T2, membrane NEU-1; assay: Membrane NEU-1 sialidase activity, HepG2 crude membranes (Muf-NANA); assay type: biochemical; conditions: 0.1 μM, 15 min incubation, compared to mutIntPep-RKR at same concentration, n = 4-5, mean ± SEM
Protocol: HepG2 cells grown in 75 cm^2 flasks and COS-7 cell lines grown in 10 cm Petri dishes were washed twice with cold PBS and resuspended with 1 ml cold TEM buffer extemporaneously completed with 1% (v/v) protease inhibitor cocktail, 10 mM NaF, 2 mM Na3VO4. After sonication, samples were centrifuged at 600g for 10 min at 4 °C to remove nonlysed cells and nuclei. Supernatants were extracted and centrifuged at 20,000g for 45 min at 4 °C. Crude membrane-containing pellets were then resuspended in 400 μl Mes buffer (2-(N-morpholino) ethanesulfonic acid hydrate, 20 mM, pH 4.5). Protein concentration was then determined by bicinchoninic acid assay to measure sialidase activity from 50 μg of crude membrane proteins. Samples were incubated with peptides for 15 min on ice. Muf-NANA (2′-(4-MethylUmbelliFeryl)-alpha-D-N-AcetylNeuraminic Acid) (Biosynth) at a concentration of 400 μM was then added and incubated with samples for 2 h at 37 °C in the dark. The reaction was then stopped by adding Na2CO3 (Merck). A total of 150 μl of each sample were finally transferred in black 96 well plates. Emitted fluorescence was measured with Infinite F200 Pro (TECAN) hardware and Magellan software (excitation: 360 nm/emission: 465 nm) (https://lifesciences.tecan.com/software-magellan?p=tab--2).

[7] = target: T3, membrane NEU-1 dimers (Homo sapiens, UniProt Q99519); assay: NEU-1 dimerization in HepG2 cell membrane extracts (Western blot); assay type: biochemical; conditions: 0.1 μM, n = 4, mean ± SEM
T3 construct: HepG2 endogenously expresses IR and NEU-1; endogenous in cells; host or cells: HepG2 (ATCC HB-8065)
Protocol: HepG2 cells grown in 75 cm^2 flasks at 80% of confluence were washed twice with cold PBS and resuspended with 1 ml cold TEM buffer (75 mM Tris, 2 mM EDTA, 12 mM MgCl2, at pH 7,5) extemporaneously completed with 1% (v/v) protease inhibitor cocktail, 10 mM NaF, and 2 mM Na3VO4. After sonication, samples were centrifuged at 600g for 10 min at 4 °C to remove unlysed cells and nuclei. Supernatants were collected and centrifuged at 20,000g for 45 min at 4 °C. Crude membrane-containing pellets were then resuspended in TEM buffer supplemented with 1% (w/v) CHAPS {3-[(3-cholamidopropyl) dimethylammonio]-1-propanesulfonate} (Sigma-Aldrich). Cell membranes were then incubated with peptides at 0.1 μM and solubilized for 3 h at 4 °C under gentle end-over-end mixing. Supernatants were recovered after a centrifugation step (20,000g, 45 min, and 4 °C). These samples were then used for Western blot analyzes.
Protein samples were diluted in Laemmli buffer (500 mM Tris, 10% (w/v) SDS, 20% saccharose (w/v), 0.5% (w/v) bromophenol blue, 10% (v/v) β-mercaptoethanol, pH 6.8) and heated for 5 min at 100 °C. […]
Chemiluminescent protein detection was done by using ECL Prime Kit (GE Healthcare, Orsay, France). […] Quantification of bands intensity has been made using Image Studio Lite software (https://www.licor.com/bio/image-studio/).

[8] = tested on: C57Bl/6J mice; assay: Glycemia measurement in mice; assay type: in vivo, mouse
Protocol: (§9) Treatments have been started when mice were aged 8 weeks. Mice were under diet without chlorophyll (#U8959, SAFE diet) 2 weeks before the beginning of treatments to minimize the background noise of fluorescence measurements. LDS micelles or Cy5-IntPep-RKR were prepared as described previously and injected intraperitoneally at 100 μg/kg twice per week (100 μl).
A slight incision at tail was made to collect a drop of blood (<10 μl). The nonfasted blood glucose was then measured under anesthesia for all groups with Contour Plus device and reactive strips before injection and 30 min after injection of LDS micelles or Cy5-IntPep-RKR at 100 μg/kg. Data were then normalized for each group by comparison with glycemia value before injection.

[9] = tested on: C57Bl/6J mice; assay: Systemic and cellular toxicity, plasma AST, CRP and LDH in mice; assay type: in vivo, mouse
Protocol: (§10) Experiments procedures were evaluated by research ethics committee of the University of Reims Champagne-Ardenne and approved by the French Ministry of Higher Education, Research and Innovation (APAFis #33891-2021111016547019). Five C57Bl/6J male and five female mice (Janvier Labs), aged 6 weeks, were maintained in a 12/12-h light/dark cycle and in a temperature and humidity-controlled environment. All mice had ad libitum access to a diet without chlorophyll (#U8959, SAFE diet) and water during the experimental period. Mice weight was measured twice per week throughout treatment. Weight gain or loss was then calculated and normalized to the weight measurement of the first week. The food intake was evaluated with weight feeders during the last week of treatment and every day. This weight was then divided by the number of mice in each cage.
as §9
Blood samples were collected before and after 8-weeks treatment, respectively, with LDS micelles or Cy5-IntPep-RKR by retroorbital and intracardiac pathway with sterile heparin Pasteur pipets and sterile needle in lithium heparin MiniCollect tubes (Greiner Bio-One). Animals were under isoflurane anesthesia during blood recovery. After centrifugation (3000 rpm, 10 min), plasma samples were then recovered in 1.5 ml eppendorfs and conserved at −20 °C. Finally, these samples were sent to the Institut Clinique de la Souris (Illkirch, France) to quantify several parameters as AST, CRP, and LDH. Graphics represent the percentages of observed variation between values obtained before and after 8-weeks treatment with LDS micelles or Cy5-IntPep-RKR.

[10] = tested on: C57Bl/6J mice; assay: Weight and food intake during 8 weeks of treatment in mice; assay type: in vivo, mouse; conditions: compared to LDS micelles
Protocol: as §10, §9

[11] = tested on: C57Bl/6J mice; assay: Biodistribution of fluorescent peptide in mice (fluorescence molecular tomography); assay type: in vivo, mouse; conditions: 100 μg/kg i.p. twice per week
Protocol: as §10, §9
Fluorescence measurements in entire body were realized in 13 mm cassette under isoflurane anesthesia (with PerkinElmer fluorescence molecular tomography 4000) at first, second, fifth, seventh, and eighth weeks of the treatment and 15 min after injection of fluorescent peptides. Organs were collected at the end of the treatment and placed on another cassette to measure their fluorescence with the same device. To remove the potential autofluorescence of certain organs, organ fluorescence of mice receiving LDS micelle injection (twice per week at 100 μg/kg) was measured and subtracted to those of mice receiving Cy5-IntPep-RKR. The measurement of organ fluorescence has been converted in ng of peptides per gram of organ and represented in % of peptides per organ. The software TrueQuant has been used for analyzes (https://www.perkinelmer.com.cn/lab-products-and-services/resources/in-vivo-imaging-software-downloads.html?_ga=2.29909951.1041849854.1637318373-1604795059.1637318373). The geometric size of the region of interest (ROI) background was between 40 and 41.5 mm^3, and one of the ROI was between 7900 and 8100 mm^3 in the entire body. The geometric size of the ROI background was the same in organ per organ biodistribution and one of the ROI for each organ approximatively as followed: the adipose tissue (1825 mm^3), the spleen (1095 mm^3), the stomach (2555 mm^3), the bladder (594 mm^3), the muscle (1142 mm^3), the liver (3379 mm^3), and the kidneys (1946 mm^3).

[12] = 100 μg/kg i.p. twice per week for 8 weeks, versus LDS micelles group
[13] = after 8 weeks, organ fluorescence, n = 10, mean ± SEM

With “FITC-LC- E312LVDPVVAAGAVVTSSGIVFFS333-RKR [FITC-IntPep-RKR, IntPeps coupled with FITC and solubilized in LDS micelles]” the “colocalization with NEU-1” value [1] was “colocalization areas at the plasma membrane”.

ELVDPVVAAGAVVTSSGIVFFSRKR [IntPep-RKR] was tested, and the “decrease of membrane NEU-1 sialidase activity” value [2] was 18.1% ± 2.9%, the “decrease of membrane NEU-1 sialidase activity” value [3] was 35.3% ± 7.6% and the “cell toxicity (cell viability, MTT)” value [4] was “do not induce cell toxicity”. The “cell toxicity (cell viability, MTT)” value [5] was “do not induce cell toxicity”, the “decrease of membrane NEU-1 sialidase activity” value [6] was 32.6% ± 5.7% and the “decrease of the formation of NEU-1 dimers” value ([7]; HepG2 cell membrane extracts, 3 h at 4 °C, compared to mutIntPep-RKR) was 30.7% ± 5.6%. For the same substance, the “decrease of the ratio NEU-1 dimers/NEU-1 monomers” value ([7]; HepG2 cell membranes, normalized to mutIntPep-RKR condition) was 42.4% ± 7.3%.

With “H-C(Cy5)-E312LVDPVVAAGAVVTSSGIVFFSRKR333-NH2 [Cy5-IntPep-RKR, IntPeps coupled with cyanine-5, injected in LDS micelles]” the “increase of blood glucose after peptide injection” value ([8]; C57Bl/6J mice without fasting, isoflurane anesthesia, 30 min after i.p. injection at 100 μg/kg, compared to before injection, n = 10, mean ± SEM) was “about 44.5% ± 10.4%”, the “blood glucose level, mice fasted for 4 h or fed” value ([8]; C57Bl/6J mice, 8 weeks of treatment at 100 μg/kg twice per week, versus LDS micelles group, n = 10 per group) was “no difference of blood glucose level” and the “plasma aspartate transaminase (AST) activity” value [9, 12] was “No significant difference”. The “plasma expression level of C-reactive protein (CRP)” value [9, 12] was “No significant difference”, the “plasma lactate dehydrogenase (LDH) activity” value [9, 12] was “No significant difference” and the “decrease of CRP level” value ([9]; 100 μg/kg i.p. twice per week, comparing data before and after 8-week treatment, mean ± SEM) was 21.11% ± 3.1%. For the same substance, the toxicity and inflammation ([9]; 8-week treatment, two injections per week at 100 μg/kg) was “did not induce toxicity and inflammation”, the weight ([10]; 100 μg/kg i.p. twice per week, 8 weeks, n = 10 per group) was “do not induce modification of weight” and the food intake ([10]; last week of 8-week treatment, n = 6) was “do not impair the food intake”. The “whole body fluorescence distribution” value ([11]; 15 min after injection, weeks 1,2,5,7 and 8) was “well distributed in the whole organism”, the “% of peptides per organ, white adipose tissue” value ([11]; after 8 weeks, organ fluorescence minus autofluorescence, n = 10, mean ± SEM) was 29.2% ± 9% and the “% of peptides per organ, bladder” value [11, 13] was 18.52% ± 5.7%. The “% of peptides per organ, kidneys” value [11, 13] was 5.33% ± 2.1%, the “% of peptides per organ, liver” value [11, 13] was 6.13% ± 2.5% and the “% of peptides per organ, muscle” value [11, 13] was 17 ± 4.25%. For the same substance, the “% of peptides per organ, spleen” value [11, 13] was 17.05% ± 3.7%.

With “ELVDPVVVAIAVVTSSIIAFFSRKR [mutIntPep-RKR]” the “cell toxicity (cell viability, MTT)” value [4] was “do not induce cell toxicity” and the “cell toxicity (cell viability, MTT)” value [5] was “do not induce cell toxicity”.
